According to US12521384B2, “Drug delivery composition using crosslinked hyaluronic acid and manufacturing method therefor” (JP cares, priority 2020, dated 2026):

Assays:
Sprague-Dawley rats = assay: Mechanical allodynia degree (threshold), von Frey up-down method, after plantar incision; format: in vivo; conditions: Gb: Ro 0.75% 300 + SC 300 (ropivacaine 2.25 mg); for threshold value (g), group average: once near sciatic nerve
Protocol: Specific pathogen-free (SPF) Sprague-Dawley rats [Cr1:CD (Sprague Dawley)] (Producer: Orient Bio Inc. (322, Galmachi-ro, Jungwon-gu, Seongnam-si, Gyeonggi-do)) were prepared according to the following condition. • (1) Number of animals at acquisition: male 28 rats • (2) Age at acquisition: about 7-week-old • (3) Body weight range at acquisition: 199.29 to 222.35 g • (4) Age at start of administration: about 8-week-old • (5) Body weight range at start of administration: 265.63 to 294.00 g • (6) Number of animals used: 24 rats • (7) Group separation
After disinfecting the left plantar part of the prepared test animals under general anesthesia, the skin and fascia with a length of 1 cm were incised in the longitudinal direction starting from the part 0.5 cm away from the tip of the back of the foot. The sole muscle (plantar muscle) of the incised part was lifted with forceps to separate 1 cm in length. […] All Ga to Gd doses […] were equally administered near the nerve tissue, and the number of animals comprised in the experimental group were 6.
As a method for measuring the degree of mechanical allodynia after preparing the test groups, a white rat was placed in a wire mesh cage with a net eye size of 2×2 mm and acclimatized for 15 minutes or more, and then the continuous reaction was evaluated by an up-down method using 8 consecutive von Frey filaments (1, 2, 4, 6, 8, 15, 26, 60 g, Stoelting, USA) when the movement of the rat became quiet. […] It was progressed as the weak filament was stimulated when the positive reaction was shown by stimulating from the von Frey filament in the center, and the strong filament was stimulated when there was no positive reaction. By the above method, measurement was performed before, and at 1, 2, 4, 8, 24, 48, 72, 120, 168 hours after administration of the test substance. For interpretation of the result of the pain behavior test, the case in that avoidance reaction was shown or the foot was lifted up on the net while in contact with a plastic plate was determined as positive. Stimulation was given twice at an interval of 3-5 minutes, and using the positive threshold among them, a response change curve with time was obtained.
Pain threshold values were measured before and at 1, 2, 4, 8, 24, 48, 72, 120, 168 after administration of the test substance of each animal of the Ga to Gd group test groups, and the average of the threshold values of each test group was calculated. In Table 4 below, the threshold value (g) measured over time of drug administration was shown.

[1] = Drug release behavior of bupivacaine (dialysis bag in PBS, RP-HPLC); format: physicochemical; conditions: 8 hours; PBS 37° C., 100 rpm
Protocol: By mixing the crosslinked hyaluronic acid gels, JPD001, JPD004 and (mixture of JPD001 and JPD004 at a weight ratio of 1:1) comprising the crosslinked hyaluronic acid solid prepared in Example 1 at a content of 2% by weight, which are Samples 1-1, 1-4 and 1-5 of Example 1 of 6 g, respectively, and 0.75% by weight bupivacaine solution 3 g, a drug preparation was prepared. A preparation in which non-crosslinked hyaluronic acid having a molecular weight of 1,500 kDa (repeated unit molecular weight 401.3) 2% by weight and a preparation comprising only the bupivacaine drug were prepared, respectively, as a control group.
The prepared drug preparation was put in a dialysis bag (MWCO: 12 K-14 K Da), separately. Then, the dialysis bag was immersed into a tube with 15 ml phosphate buffer solution. The 50 mL conical tube in which the immersed dialysis bag was put was placed in a shaking tank maintained at 37° C. and shaken at 100 rpm horizontally. Then, at scheduled time intervals, a release medium (PBS) aliquot of 1.5 mL was collected and the entire release medium was replaced with new PBS to maintain a sink condition. Quantification of the released bupivacaine was determined by reverse-phase high-performance liquid chromatography (RP-HPLC) using a ZORBAX Eclipse XDB C18 column (4.6 mm×250 mm, 5 μm) and acetonitrile/pH 8.0 buffer (60:40, v/v) for 10 minutes or more.

| SMILES | time at which the pain was completely recovered (Sprague-Dawley rats) | threshold value (g), group average (Sprague-Dawley rats; 0 hr (before administration)) | threshold value (g), group average (Sprague-Dawley rats; 1 hr) | threshold value (g), group average (Sprague-Dawley rats; 2 hr) | threshold value (g), group average (Sprague-Dawley rats; 4 hr) | threshold value (g), group average (Sprague-Dawley rats; 8 hr) | threshold value (g), group average (Sprague-Dawley rats; 24 hr) | threshold value (g), group average (Sprague-Dawley rats; 48 hr) | threshold value (g), group average (Sprague-Dawley rats; 72 hr) | threshold value (g), group average (Sprague-Dawley rats; 120 hr) | threshold value (g), group average (Sprague-Dawley rats; 168 hr) | cumulative release amount of bupivacaine [1] |
| --- | --- | --- | --- | --- | --- | --- | --- | --- | --- | --- | --- | --- |
| CCCN1CCCC[C@H]1C(=O)Nc1c(C)cccc1C [Ropivacaine, ropivacaine] | 120 h | 60 g | 60 g | 60 g | 37.3 g | 31.7 g | 28.0 g | 17.5 g | 29.8 g | 60 g | 60 g | – |
| CCCCN1CCCCC1C(=O)Nc1c(C)cccc1C (stereo not drawn) [bupivacaine] | – | – | – | – | – | – | – | – | – | – | – | 99% |
